{
  "source": "patent US11338006B2",
  "about": "“Composition and method for promoting digestive health” (Vidy Herbs, Inc., priority 2018, dated 2022)",
  "key": {"[1]": {"test": "body weight in the gastric emptying study", "type": "in vivo, Sprague Dawley rats", "conditions": "10 mg/kg orally", "procedure": "(§1) A composition of asafoetida and milk thistle extract in a ratio of 1:3 was evaluated for effects on gastric emptying and gastrointestinal transit is Sprague-Dawley rats. Twenty-four male Sprague Dawley (SD) rats (190-200 g) were divided into four groups, each group consisted of six animals with less than 20% mean body weight range. Group I served as control group, Group II referenced standard Domiperidone, Groups III and IV were administered the composition. During experimentation, animals were housed under standard husbandry conditions at a temperature of 22±3° C., relative humidity (30-70%) and a light:dark cycle of 12:12 h. Animals were allowed free access to pellet feed and UV purified water.\nBody weights of each animal group were measured at initiation of experiment, on day 7, and fasting on day 8."}, "male Sprague Dawley rats [2]": {"test_system": "male Sprague Dawley rats", "test": "gastrointestinal transit (GIT)", "type": "in vivo", "conditions": "single dose (10 mg/kg), p<0.001", "procedure": "as §1, with “Animals were allowed free access to pellet feed and UV purified water.” left out\nAll treatments were given for seven days daily in the morning except reference standard and on day 8th after fasted for 16 h all groups were administered with respective doses of the composition or standard drug Domperidone. Gastric emptying was measured by the use of phenol red method as described previously (Kawachi et al. 2011). […] The amount of phenol red in the supernatant was determined based on the absorbance at 570 nm measured using a microplate reader (Multiskan EX, Thermo Scientific). […] Gastric emptying was calculated using the formula: (1−amount of phenol red in the test sample/amount of phenol red in the standard sample)×100. […]\nThe composition in beadlet form was evaluated for efficacy in alleviating the delayed gastric emptying using an animal model. […]"}, "male Sprague Dawley rats [3]": {"test_system": "male Sprague Dawley rats", "test": "gastric emptying, phenol red method", "type": "in vivo", "conditions": "10 mg/kg orally, 20 minutes after phenol red meal; control 64.94%", "procedure": "as §1, with “Animals were allowed free access to pellet feed and UV purified water.” left out\nAll treatments were given for seven days daily in the morning except reference standard and on day 8th after fasted for 16 h all groups were administered with respective doses of the composition or standard drug Domperidone. Gastric emptying was measured by the use of phenol red method as described previously (Kawachi et al. 2011). […] The amount of phenol red in the supernatant was determined based on the absorbance at 570 nm measured using a microplate reader (Multiskan EX, Thermo Scientific). […] Gastric emptying was calculated using the formula: (1−amount of phenol red in the test sample/amount of phenol red in the standard sample)×100.\nThe percentage gastric emptying was assessed after 20 minutes of phenol red meal administration in rats. […]"}},
  "data": [
    {"smiles": "O=c1[nH]c2ccccc2n1CCCN1CCC(n2c(=O)[nH]c3cc(Cl)ccc32)CC1", "note": "[Domperidone]", "values": [
      {"measurement": "Body weight", "setting": "[1]; Day 7", "result": "228.69 ± 12.07", "unit": "g"},
      {"measurement": "Body weight", "setting": "[1]; Fasting (Day 8)", "result": "211.9 ± 11.72", "unit": "g"},
      {"measurement": "Body weight", "setting": "[1]; Initial", "result": "209.68 ± 9.71", "unit": "g"},
      {"measurement": "GIT compared to control", "setting": "male Sprague Dawley rats [2]", "result": "significant increase"},
      {"measurement": "percentage gastric emptying", "setting": "male Sprague Dawley rats [3]", "result": 78.86, "unit": "%"}
    ]}
  ]
}
